Measured values reported in patent US7531565B2, “Imidazolidin-2-one derivatives as selective androgen receptor modulators (SARMS)” (Janssen Pharmaceutica, N.V., priority 2004, dated 2009).

Assays:
androgen receptor [1] = biological target: T1, androgen receptor (Rattus norvegicus, UniProt P15207); assay: Androgen receptor binding using rat ventral prostate cytosol; set-up: Male Sprague Dawley or Wistar rats (Charles River, 200-300 g) were used for each preparation; from tissue; host or cells: ventral prostate cytosol of castrated male Sprague Dawley or Wistar rats
T1 sequence (P15207 1-902): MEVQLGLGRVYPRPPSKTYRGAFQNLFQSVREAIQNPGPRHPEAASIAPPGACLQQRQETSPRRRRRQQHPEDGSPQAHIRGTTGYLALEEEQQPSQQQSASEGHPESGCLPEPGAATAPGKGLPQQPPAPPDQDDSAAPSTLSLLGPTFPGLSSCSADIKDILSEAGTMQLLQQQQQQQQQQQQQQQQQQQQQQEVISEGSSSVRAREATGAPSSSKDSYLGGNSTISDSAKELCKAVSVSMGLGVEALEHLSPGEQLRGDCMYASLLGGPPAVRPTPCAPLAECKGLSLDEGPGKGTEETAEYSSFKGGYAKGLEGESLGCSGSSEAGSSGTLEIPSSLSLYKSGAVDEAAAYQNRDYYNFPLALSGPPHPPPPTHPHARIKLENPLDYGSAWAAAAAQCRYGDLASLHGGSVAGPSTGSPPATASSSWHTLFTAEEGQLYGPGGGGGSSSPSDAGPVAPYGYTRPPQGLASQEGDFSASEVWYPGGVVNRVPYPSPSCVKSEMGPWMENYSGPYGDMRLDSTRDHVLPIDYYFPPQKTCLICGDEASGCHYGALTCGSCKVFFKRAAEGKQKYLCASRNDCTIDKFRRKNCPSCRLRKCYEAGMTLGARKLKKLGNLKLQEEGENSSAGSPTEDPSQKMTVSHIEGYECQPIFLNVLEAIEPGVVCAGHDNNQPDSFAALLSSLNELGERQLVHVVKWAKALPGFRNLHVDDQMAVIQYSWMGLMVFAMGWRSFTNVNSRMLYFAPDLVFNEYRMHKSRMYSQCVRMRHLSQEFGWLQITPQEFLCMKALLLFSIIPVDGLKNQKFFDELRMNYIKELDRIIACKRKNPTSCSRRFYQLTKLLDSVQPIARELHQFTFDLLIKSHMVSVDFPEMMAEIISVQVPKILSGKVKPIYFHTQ

[2] = tested on: castrated male Sprague Dawley rats; assay: Ventral prostate and seminal vesicle weight in vivo assay; set-up: species or system rat; key: A test compound was said to be “active” if the non weight adjusted prostate weight was ≦60 mg or ≧84 mg; they are listed herein as “inactive” as they did not meet the specified criteria defined above; details: immature castrated rats, once daily for five days, usually orally 40 mg/kg, with testosterone propionate 2 mg/kg s.c.
Procedure: Immature (approximately 50 g) castrated male Sprague Dawley rats (Charles River) were treated once daily for five days with test compound (usually given orally at 40 mg/kg in a volume of 0.3 mL, in 30% cyclodextrin or 0.5% methylcellulose vehicle) and with testosterone propionate (given subcutaneously by injection at the nape of the neck at 2 mg/kg, in a volume of 0.1 mL in sesame oil). On the sixth day, the rats were euthanized by asphyxiation in carbon dioxide. Ventral prosatates and seminal vesicles were removed and their wet weights determined. Test compound activity was determined as the percent inhibition of testosterone-enhanced tissue weights, with a vehicle-treated control group set to zero percent and a testosterone alone-treated control group set to 100%.
A test compound was said to be “active” if the non weight adjusted prostate weight was ≦60 mg or ≧84 mg.

androgen receptor [3] = biological target: T1, androgen receptor; assay: L929 androgen receptor functional assay, adenovirus transduction; format: cell-based; set-up: expressed in transfected cells; details: 3 μM, L929 cells; for % Activition @ 3 μM: agonist testing (no R1881), luciferase
Procedure: L929 cells were plated in 96-well plates at 20,000 cells per well, in DMEM/F12 (GIBCO) containing 10% (v/v) charcoal-treated fetal bovine serum (Hyclone) and lacking phenol red. The plates were then incubated overnight at 37° C. in 5% (v/v) humidified CO2.
Test compound dilutions were prepared in 100% (v/v) DMSO, if necessary. Each dilution was made to 1250× the final desired assay concentration. First, 2 mL of DMEM/F12 lacking phenol red was pipetted into the wells of a 2-mL 96-well assay block. Next, 4 μL of the 1250× test compound dilutions were pipetted into each well of the assay block. The mixtures within the well were then carefully mixed by pipette.
In a 15 mL or 50 mL sterile centrifuge tube, a 2.5 nM (2.5×) dilution of R1881 (methyl-trienolone) in DMEM/F12 lacking phenol red was prepared. In a second 15 mL or 50 mL centrifuge tube a solution containing an equal volume of DMEM to the first and an equal volume of 100% (v/v) DMSO to the volume of R1881 used in the first tube was prepared.
In a 15 mL or 50 mL sterile centrifuge tube, a dilution in DMEM/F12 of the adenovirus AdEasy+rAR at an moi of 1:500 per well was prepared. The medium was removed from the 96-well plates by inversion and dried, inverted, very briefly. As soon as possible after medium removal, 40 μL of the diluted unlabeled test compound was added to each well, in duplicate. To each well designated for antagonist testing was added 40 μL of the 2.5 nM R1881 dilution to the wells for antagonist testing. To each well designated for agonist testing was added 40 μL of the DMSO dilution. Then 20 μL of the diluted adenovirus were added to all wells. The plates were incubated for 48 hours at 37° C. in 5% (v/v) humidified CO2.
To each well was added 100 μL of Steady-Glo luciferase assay substrate (Promega) and the plates were placed on a rotary shaker for 1 min. The plates were then incubated at room temperature in the dark for one hour. The contents of each well were then transferred to a white microtiter plate (Packard) and read on a Luminoskan Ascent (Thermo Lab Systems).
L929 AR percent activity was determined by testing dilutions of the test compound using a concentration of 3000 nM unless otherwise noted. L929 percent inhibition was determined by testing dilutions of the test compound using a concentration of 3000 nM. EC50s and IC50s were determined by testing serial dilutions of the test compound (usually duplicate ten half-log dilutions starting at 10 μM). Luciferase activity per well were measured and EC50s and IC50s determined by linear regression.
Representative compounds of the present invention were tested for functional activity at the androgen receptor according to the procedure described above with results as listed in Table 4.

androgen receptor [4] = biological target: T1, androgen receptor; assay: COS-7 whole-cell androgen receptor binding assay, adenovirus transduction; set-up: expressed in transfected cells; details: 3 μM (3000 nM); COS-7 cells, [3H]R1881, AdEasy+rAR
Procedure: COS-7 cells were plated in 96-well plates at 20,000 cells per well, in a solution of DMEM/F12 (GIBCO) containing 10% (v/v) charcoal-treated fetal bovine serum (Hyclone) and lacking phenol red. The cells were then incubated overnight at 37° C. in 5% (v/v) humidified CO2.
Test compound solutions were prepared by diluting the test compound in 100% (v/v) DMSO, if necessary. Each dilution yielded a solution which was 625× the final desired test concentration.
Next, 1 mL of DMEM/F12 lacking phenol red was pipetted into each of the wells of a 2-mL 96-well assay block. Then 4 μL of the 625× test compound dilutions were pipetted into each well of the assay block. The wells were carefully mixed by pipette.
In a 15 mL or 50 mL sterile centrifuge tube, a 2.5 nM dilution of tritiated methyl-trienolone in DMEM/F12 lacking phenol red ([^3H]R1881; Perkin-Elmer) was prepared.
In a 15 mL or 50 mL sterile centrifuge tube, a dilution in DMEM/F12 of the adenovirus AdEasy+rAR at a moi of 1:50 per well was prepared.
The medium was removed from the 96-well plates by inversion and the plates dried very briefly, inverted, on a sterile towel. As soon as possible after medium removal, 40 μL of the diluted test compound was added to each well, in duplicate. To each well was then added 40 μL of the 2.5 nM [^3H]R1881 and 20 μL of the diluted adenovirus. The plates were then incubated for 48 hours at 37° C. in 5% (v/v) humidified CO2.
The medium was removed from the above incubated plates by inversion and dried. Each well was then washed with 0.35 mL of 1×PBS. The PBS was then removed from the plates by inversion and the plates dried.
To each well was then added 50 μL of 0.5% (v/v) Triton X-100 (Sigma) in 1×PBS and the plates placed on a rotary shaker for 5 min. The contents of each well were then transferred to an OptiPlate-96 (Packard) scintillation plate. To each well was then added 0.2 mL of Microscint-20 (Packard) and the wells counted on a TopCount (Packard).
Percent inhibition was determined by testing dilutions of the test compound (usually duplicates of 10 μM) in the binding assay. Counts per well were measured and percents of inhibition determined. Androgen receptor binding IC50s were determined by testing serial dilutions of the test compound (usually duplicate ten half-log dilutions starting at 10 μM) in the binding assay. Counts per well were measured and IC50s determined by linear regression.
Representative compounds of the present invention were tested for binding to the androgen receptor according to the procedure described above with results as listed in Table C. Unless otherwise noted, COS binding % inhibition was determined using a concentration of 3000 nM. For compounds tested more than once, each result is listed separately in Table 3 below.

[5] = antagonist testing with R1881, luciferase

Structure (SMILES)	% Inhibition @ 3 μM (androgen receptor [1]) [%]	active / inactive by non weight adjusted prostate weight [2]	% Activition @ 3 μM (androgen receptor [3]) [%]	% Inhibition @ 3 μM (androgen receptor [3]; [5]) [%]	% Inhibition @ 3 μM (androgen receptor [4]) [%]	inhibition at 3 µM (androgen receptor [1]) [%]	inhibition at 3 µM (androgen receptor [3]; antagonist testing with R1881, luciferase, read-out: % Inhibition @ 3 μM) [%]
CC1(C(=O)O)CN(c2ccc(C#N)c(C(F)(F)F)c2)C(=O)N1 (racemic) [Compound 5e]	−67	active	0	30	–	–	–
CC1(C(=O)Nc2ccc(Cl)c(C(F)(F)F)c2)CN(c2ccc(F)cc2)C(=O)N1 (racemic) [Compound 6f]	66	–	3	85	35	–	–
CC1(C(=O)Nc2ccc(C#N)c(C(F)(F)F)c2)CN(Cc2ccc(F)cc2)C(=O)N1 (racemic) [Compound 6i]	4	–	0	76	28	–	–
COC(=O)C1(C)CN(c2ccc(F)cc2)C(=O)N1 (stereo not shown) [Compound 4a, 1-(4-Fluoro-phenyl)-4-methyl-2-oxo-imidazolidine-4-carboxylic acid methyl ester]	–	inactive	0	–	–	-57	-20
